Among the data in US8362000B2, “Azetidinyl diamides as monoacylglycerol lipase inhibitors” (Janssen Pharmaceutica NV, priority 2009, dated 2013) are 2-AG accumulation, % of vehicle control, Kd and IC50 values, retold here.

One test has as its target T1, MGL (Rattus norvegicus, UniProt Q8R431).
T1 construct: one g rat brain was homogenized using a Polytron homogenizer; from tissue; host or cells: rat brain homogenate
T1 sequence (Q8R431 1-303): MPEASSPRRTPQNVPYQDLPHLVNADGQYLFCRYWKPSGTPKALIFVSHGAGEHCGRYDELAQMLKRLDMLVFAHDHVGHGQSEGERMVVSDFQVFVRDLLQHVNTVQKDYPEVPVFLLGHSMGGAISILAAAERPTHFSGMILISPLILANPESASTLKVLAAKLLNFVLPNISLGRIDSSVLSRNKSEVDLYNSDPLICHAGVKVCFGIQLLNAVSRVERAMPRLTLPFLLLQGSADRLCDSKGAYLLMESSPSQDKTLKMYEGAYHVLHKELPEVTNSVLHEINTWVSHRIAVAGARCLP
Description: 2-AG accumulation assay in rat brain homogenate. The test is classed as biochemical. The conditions noted are these: rat brain homogenate, 2-AG accumulation as percent of vehicle; for 2-AG accumulation, % of vehicle control at 10 µM: compound 10 μM, read-out: Rat Brain 2AG % VehCntrl (%) @ 10 μM.

The next test addresses T2, mutant MGL (Homo sapiens, UniProt Q99685, L169S/L176S).
T2 sequence (Q99685 1-303 L169S/L176S): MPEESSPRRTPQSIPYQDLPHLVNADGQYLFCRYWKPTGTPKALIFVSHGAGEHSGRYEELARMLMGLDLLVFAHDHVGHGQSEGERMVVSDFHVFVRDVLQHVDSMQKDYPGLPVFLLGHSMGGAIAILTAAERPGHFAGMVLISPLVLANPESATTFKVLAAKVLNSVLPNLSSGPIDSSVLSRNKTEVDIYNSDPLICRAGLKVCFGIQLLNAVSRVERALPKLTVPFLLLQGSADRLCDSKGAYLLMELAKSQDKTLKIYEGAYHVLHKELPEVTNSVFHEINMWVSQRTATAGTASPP
The test is described as follows: MGL ThermoFluor assay - mutant. It counts as binding. (In general: Differential scanning fluorimetry follows unfolding on heating by fluorescence.)

In test [1] the target is T3, purified wild type MGL (wt-MGLL 6H-11-313) (Homo sapiens, UniProt Q99685).
T3 sequence (Q99685 1-303): T2 sequence (Q99685 1-303 L169S/L176S) with S169L, S176L

[2] abbreviates: ThermoFluor thermal stability binding assay, read-out: MGL mutant ThermoFluor Kd.
Where [3] appears, read: ThermoFluor, compound concentration measured by qNMR, read-out: MGL mutant ThermoFluor qKd (μM) (using qNMR conc.).
The mark [4] stands for this setting: ThermoFluor concentration-response, read-out: MGL mutant ThermoFluor Kd.
Where [5] appears, read: compound concentration measured by qNMR, read-out: MGL mutant ThermoFluor qKd (using qNMR conc.).
Where [6] appears, read: ThermoFluor, compound concentration measured by qNMR, read-out: MGL mutant ThermoFluor qKd (using qNMR conc.).

Residue numbers refer to the chain shown, from its start. Read-outs that look alike come from different tables or passages of the source. Some results are limits rather than exact numbers.

Description for mutant MGL: The ThermoFluor (TF) assay is a 384-well plate-based binding assay that measures thermal stability of proteins^1,2. […] TF dye used in all experiments was 1,8-ANS (Invitrogen: A-47). Final TF assay conditions used for MGL studies were 0.07 mg/ml of mutant MGL, 100 μM ANS, 200 mM NaCl, 0.001% Tween-20 in 50 mM PIPES (pH=7.0).
Screening compound plates contained 100% DMSO compound solutions at a single concentration. […] Columns 12 and 24 were used as DMSO reference and contained no compound. […] Following compound dispension, protein and dye solutions were added to achieve the final assay volume of 3 μL.
Bar-coded assay plates were robotically loaded onto a thermostatically controlled PCR-type thermal block and then heated from 40 to 90° C. degrees at a ramp-rate of 1° C./min for all experiments. Fluorescence was measured by continuous illumination with UV light (Hamamatsu LC6), supplied via fiber optics and filtered through a band-pass filter (380-400 nm; >60D cutoff). Fluorescence emission of the entire 384-well plate was detected by measuring light intensity using a CCD camera (Sensys, Roper Scientific) filtered to detect 500±25 nm, resulting in simultaneous and independent readings of all 384 wells. A single image with 20-sec exposure time was collected at each temperature, and the sum of the pixel intensity in a given area of the assay plate was recorded vs temperature and fit to standard equations to yield the Tm^1. • 1.
For some experiments, quantitative NMR spectroscopy (qNMR) was used to measure concentration of the initial 100% DMSO compound solutions and, using the same fitting method, qKd values were determined

Turning to `O=C(c1ccccc1)N1CC(N2CCN(C(=O)c3ccc(-c4ccccc4)cc3)C(c3ccccc3)C2)C1` (stereo not shown) [Cpd 44, 1-(Biphenyl-4-ylcarbonyl)-2-phenyl-4-[1-(phenylcarbonyl)azetidin-3-yl]piperazine], the 2-AG accumulation, % of vehicle control at 10 µM at MGL is 238%. Regarding `O=C(c1ccc2c(c1)ncn2-c1ccc(C(F)(F)F)cc1)N1CC(N2CCN(C(=O)c3nccs3)CC2)C1` [Cpd 1064, 5-({3-[4-(1,3-Thiazol-2-ylcarbonyl)piperazin-1-yl]azetidin-1-yl}carbonyl)-1-[4-(trifluoromethyl)phenyl]-1H-benzimidazole], the 2-AG accumulation, % of vehicle control at 1 µM at MGL (compound 1 μM, read-out: Rat Brain 2AG % VehCntrl (%) @ 1 μM) was 570%. Regarding `O=C(c1ccc2c(Br)cccc2c1)N1CC(N2CCN(C(=O)c3nccs3)CC2)C1` [Cpd 313, 1-{1-[(5-Bromonaphthalen-2-yl)carbonyl]azetidin-3-yl}-4-(1,3-thiazol-2-ylcarbonyl)piperazine], the 2-AG accumulation, % of vehicle control at 10 µM on MGL is 814%. Take `O=C(c1ccc(-c2cccs2)cc1)N1CC(N2CCN(C(=O)c3nccs3)CC2)C1` [Cpd 138, 1-(1,3-Thiazol-2-ylcarbonyl)-4-{1-[(4-thiophen-2-ylphenyl)carbonyl]azetidin-3-yl}piperazine]: the 2-AG accumulation, % of vehicle control at 10 µM on MGL amounted to 661%.

`Cc1c(C(=O)N2CC(N3CCN(C(=O)c4nccs4)CC3)C2)sc2ccc(C(F)(F)F)cc12` [Cpd 897]: the Kd on mutant MGL (setting [2]) is 0.002 µM. Also, the IC50 in test [1] is less than 5 nM. Consider `Cc1cc2nc(C(=O)N3CC(N4CCN(C(=O)c5ccc[nH]5)CC4)C3)cn2cc1Br` [Cpd 1451], for which the Kd on mutant MGL (setting [3]) was greater than 16.2 µM. This compound also displayed an IC50 in test [1] greater than 16700 nM. For `O=C(c1cc2cc(Br)cnc2o1)N1CC(N2CCN(C(=O)c3nccs3)CC2)C1` [Cpd 864], on mutant MGL (setting [4]), the Kd was found to be 2.41 µM. The midpoint of inhibition in test [1], the IC50, lay at 10200 nM.

On to `Cc1cc(C(=O)N2CC(N3CCN(C(=O)c4nccs4)CC3)C2)cc2ccn(-c3ccc(F)cc3)c12` [Cpd 1355, 1-(4-Fluorophenyl)-7-methyl-5-({3-[4-(1,3-thiazol-2-ylcarbonyl)piperazin-1-yl]azetidin-1-yl}carbonyl)-1H-indole], for which, on mutant MGL (setting [5]), the Kd was determined as 0.002 µM. This compound also gave an IC50 in test [1] of less than 5 nM. On to `O=C(c1ccc2c(ccn2-c2cc(F)ccc2F)c1)N1CC(N2CCN(C(=O)c3nccs3)CC2)C1` [Cpd 1373], for which the Kd on mutant MGL (setting [3]) came out at 0.004 µM. This compound also came in with an IC50 in test [1] of less than 5 nM. `O=C(c1cccc(-c2cccc(F)c2)c1)N1CC(N2CCN(C(=O)c3cscn3)CC2)C1` [Cpd 1228]: the Kd at mutant MGL (setting [4]) was determined as 1.42 µM. The IC50 in test [1] worked out at 295 nM. For the compound `O=C(c1ccc2c(c1)[nH]c(=O)n2-c1ccc(F)cc1)N1CC(N2CCN(C(=O)c3nccs3)CC2)C1` [Cpd 934, 1-(4-Fluorophenyl)-5-({3-[4-(1,3-thiazol-2-ylcarbonyl)piperazin-1-yl]azetidin-1-yl}carbonyl)-1,3-dihydro-2H-benzimidazol-2-one], the Kd at mutant MGL (setting [4]) came to 0.025 µM. The same compound registered an IC50 in test [1] of 174 nM. On to `Cc1c(C(=O)N2CCN(C3CN(C(=O)c4nccs4)C3)CC2)sc2cc(C(F)(F)F)ccc12` [Cpd 704], for which the Kd on mutant MGL (setting [4]) turned out to be 0.017 µM. This compound also showed an IC50 in test [1] of 96 nM. For `Cn1nc(-c2ccc(F)cc2)c2cc(C(=O)N3CC(N4CCN(C(=O)c5nccs5)CC4)C3)ccc21` [Cpd 1195], in that order: 0.023 µM and 120 nM. For the compound `O=C(c1ccccc1)N1CCN(C2CN(C(=O)c3sc4cc(C(F)(F)F)ccc4c3C3CC3)C2)CC1` [Cpd 515], at mutant MGL (setting [2]), the Kd was 0.011 µM. This compound registered an IC50 in test [1] of 455 nM. Turning to `O=C(c1ccc2c(c1)[nH]c(=O)n2-c1ccccc1)N1CC(N2CCN(C(=O)c3nccs3)CC2)C1` [Cpd 933, 1-Phenyl-5-({3-[4-(1,3-thiazol-2-ylcarbonyl)piperazin-1-yl]azetidin-1-yl}carbonyl)-1,3-dihydro-2H-benzimidazol-2-one], at mutant MGL (setting [4]), the Kd turned out to be 0.034 µM. This compound gave an IC50 in test [1] of 191 nM. For `O=C(c1ccc(-c2ccccc2)cc1)N1CCN(C2CN(C(=O)c3cccc(F)c3)C2)CC1` [Cpd 1242, 1-(Biphenyl-4-ylcarbonyl)-4-{1-[(3-fluorophenyl)carbonyl]azetidin-3-yl}piperazine], at mutant MGL (setting [4]), the Kd came out at 0.197 µM. 461 nM corresponded to half-maximal inhibition in test [1] (IC50). `Cc1c(C(=O)N2CC(N3CCN(C(=O)c4nccs4)CC3)C2)sc2nc3n(c(=O)c12)CCC3` [Cpd 824]: the Kd at mutant MGL (setting [6]) worked out at 0.074 µM. In test [1], this compound came in with an IC50 of 3120 nM. Regarding `Cc1nc2cc(C(=O)N3CC(N4CCN(C(=O)c5cscn5)CC4)C3)ccc2n1-c1ccc(F)c(F)c1` [Cpd 1264], the Kd at mutant MGL (setting [5]) came out at 0.251 µM. The compound also registered a half-maximal inhibitory concentration (IC50) in test [1] of 986 nM.

Regarding `O=C(c1ccc2c(c1)OCCCO2)N1CC(N2CCN(C(=O)c3nccs3)CC2)C1` [Cpd 770], the Kd on mutant MGL (setting [6]) worked out at 1.13 µM. In test [1], this compound showed a 50% inhibitory concentration (IC50) of 740 nM.

Consider `O=C(c1nccs1)N1CCN(C2CN(C(=O)c3nn(-c4ccc(Cl)cc4Cl)c4c3CCC/C4=C\c3ccc(Cl)cc3)C2)CC1` [Cpd 1018], for which the Kd on mutant MGL (setting [4]) was determined as 0.207 µM. For the same compound, in test [1], 101 nM corresponded to half-maximal inhibition (IC50). Regarding `O=C(c1ccc[nH]1)N1CCN(C2CN(C(=O)c3cc4ccc(C(F)(F)F)nc4[nH]3)C2)CC1` [Cpd 1447], on mutant MGL (setting [3]), the Kd worked out at 3.33 µM. Also, the IC50 in test [1] is greater than 16700 nM.

Take `Cc1c(C(=O)N2CCN(C3CN(C(=O)c4ccc[nH]4)C3)CC2)n(C)c2ccc(Cl)cc12` [Cpd 839]: on mutant MGL (setting [6]), the Kd was found to be 2.5 µM. The IC50 in test [1] came out at 5140 nM.

As for `O=C(c1ccc2c(c1)ncn2CC(F)(F)F)N1CC(N2CCN(C(=O)c3nccs3)CC2)C1` [Cpd 761], on mutant MGL (setting [5]), the Kd was determined as 0.092 µM. In test [1], this compound registered an IC50 of 583 nM. Consider `O=C(c1ccc(-c2cccc(C(F)(F)F)c2)cc1)N1CC(N2CCN(C(=O)c3cnco3)CC2)C1` [Cpd 1169], for which the Kd on mutant MGL (setting [3]) stood at 0.053 µM. Also, in test [1], half-maximal inhibition (IC50) required 55 nM. As to `Cc1nc2cc(C(=O)N3CC(N4CCN(C(=O)c5cscn5)CC4)C3)ccc2n1-c1ccc(C(F)(F)F)cc1` [Cpd 1289], the Kd on mutant MGL (setting [5]) was 0.13 µM. In test [1], this compound had an IC50 of 2600 nM. For `O=C(c1ccc(N2CCOCC2)cc1)N1CC(N2CCN(C(=O)c3nccs3)CC2)C1` [Cpd 815], the Kd at mutant MGL (setting [4]) came to 0.25 µM. The same compound gave an IC50 in test [1] of 2490 nM.

Regarding `O=C(c1ccccc1)N1CCN(C2CN(C(=O)c3ccc4c(ccn4-c4ccc(F)cn4)c3)C2)CC1` [Cpd 596, 1-(5-Fluoropyridin-2-yl)-5-({3-[4-(phenylcarbonyl)piperazin-1-yl]azetidin-1-yl}carbonyl)-1H-indole], the Kd on mutant MGL (setting [6]) is 0.628 µM. The same compound gave an IC50 in test [1] of 543 nM.

Take `Cc1c(C(=O)N2CC(N3CCN(C(=O)c4cscn4)CC3)C2)oc2ccc(F)cc12` [Cpd 862]: the Kd on mutant MGL (setting [4]) is greater than 21.9 µM. The same compound had an IC50 in test [1] of 9510 nM. For `O=C(c1ccc2nc(C(F)(F)F)sc2c1)N1CC(N2CCN(C(=O)c3nccs3)CC2)C1` [Cpd 718], on mutant MGL (setting [2]), the Kd was 0.072 µM. The compound also came in with an IC50 in test [1] of 148 nM.

As to `NC(=O)c1ccc(Cn2ncc3cc(C(=O)N4CC(N5CCN(C(=O)c6nccs6)CC5)C4)ccc32)cc1` [Cpd 1044, 4-{[5-({3-[4-(1,3-Thiazol-2-ylcarbonyl)piperazin-1-yl]azetidin-1-yl]carbonyl)-1H-indazol-1-yl}methyl}benzamide], the Kd at mutant MGL (setting [5]) came to 0.945 µM. In addition, 718 nM corresponded to half-maximal inhibition in test [1] (IC50).

Regarding `O=C(c1ccc2c(c1)[nH]c(=O)n2CCC(F)(F)F)N1CC(N2CCN(C(=O)c3nccs3)CC2)C1` [Cpd 938], the Kd on mutant MGL (setting [4]) came to 0.091 µM. Further, the IC50 in test [1] worked out at 698 nM.

One may read the IC50 as the concentration needed to halve the response being measured.
